Data reported in patent US8314058B2, “Uptake of macromolecules” (Axcess Limited, priority 2003, dated 2012).

Tested on: juvenile pigs
Assay: In vivo efficacy of tablets containing chenodeoxycholate/propyl gallate/calcitonin mixture in juvenile pigs (blood calcium)
Details: 400 iu s.c., six hour period
Experimental: Blood calcium levels are measured at intervals over a six hour period and mean change in AUC of plasma calculated is calculated in h·mmol/l.

salmon calcitonin
AUC (mean change in AUC of plasma calcium): -1.79 mmol·h/L
